Measurements as given in patent US12156885B2, “Methods and compositions for treating heart conditions” (priority 2020, dated 2024).

What was measured:
[1] = Treatment of PVCs in a patient with lithium carbonate in combination with metoprolol (cardiac event monitor / EKG); assay type: in vivo, human; details: lithium carbonate 300 mg per day (150 mg BID) in combination with metoprolol 150 mg per day
Source text: Trial 1 was started on Aug. 23, 2019 and stopped on Jan. 1, 2020; Trial 2 was started on Jan. 12, 2020 and stopped on Apr. 21, 2020; and Trial 3 was started on May 8, 2020 and was ongoing at the time the instant application was filed.
The first trial was 109 days. The second trial was 43 days.

[2] = patient; lithium carbonate 300 mg per day (Li2CO3 150 mg BID)

O=C([O-])[O-].[Li+].[Li+] [lithium carbonate]
PVCs reduced, each of three trials ([1]; each trial, for the duration of treatment with lithium): at least 90% | PVCs reduced (reduction of PVCs) ([1]; within a few days, for the duration of lithium treatment): about 90% | lithium serum level [2]: about 0.2
